The target of one data set is T1, CB1 receptor (Homo sapiens, UniProt P21554).
T1 construct: expressed in transfected cells
As to the kind of experiment: [35S]-GTPγS binding assay on membranes from cells stably transfected with the CB1 gene, inhibition of CP55940 (EC80). Format: biochemical. The conditions noted are these: half maximal inhibition of GTPγS binding in presence of EC80 concentration of agonist CP55940; CB1-transfected cell membranes. Here is the method: Compounds of the present invention are active against the receptor product of the CB1 gene. The affinity of the compounds of the invention for central cannabinoid receptors is demonstrable in methods described in Devane et al, Molecular Pharmacology, 1988, 34, 605 or those described in WO01/70700 or EP 656354. Alternatively the assay may be performed as follows.
10 μg of membranes prepared from cells stably transfected with the CB1 gene were suspended in 200 μl of 100 mM NaCl, 5 mM MgCl2, 1 mM EDTA, 50 mM HEPES (pH 7.4), 1 mM DTT, 0.1% BSA and 100 μM GDP. To this was added an EC80 concentration of agonist (CP55940), the required concentration of test compound and 0.1 μCi [^35S]-GTPγS. The reaction was allowed to proceed at 30° C. for 45 min. […] Filters were then covered with scintilant and counted for the amount of [^35S]-GTPγS retained by the filter.
Activity is measured in the absence of all ligands (minimum activity) or in the presence of an EC80 concentration of CP55940 (maximum activity). […] At various concentrations of novel ligand, activity is calculated as a percentage of the maximum activity and plotted. The data are fitted using the equation y=A+((B−A)/1+((C/x)UD)) and the IC50 value determined as the concentration required to give half maximal inhibition of GTPγS binding under the conditions used.

T1 sequence (P21554 whole entry): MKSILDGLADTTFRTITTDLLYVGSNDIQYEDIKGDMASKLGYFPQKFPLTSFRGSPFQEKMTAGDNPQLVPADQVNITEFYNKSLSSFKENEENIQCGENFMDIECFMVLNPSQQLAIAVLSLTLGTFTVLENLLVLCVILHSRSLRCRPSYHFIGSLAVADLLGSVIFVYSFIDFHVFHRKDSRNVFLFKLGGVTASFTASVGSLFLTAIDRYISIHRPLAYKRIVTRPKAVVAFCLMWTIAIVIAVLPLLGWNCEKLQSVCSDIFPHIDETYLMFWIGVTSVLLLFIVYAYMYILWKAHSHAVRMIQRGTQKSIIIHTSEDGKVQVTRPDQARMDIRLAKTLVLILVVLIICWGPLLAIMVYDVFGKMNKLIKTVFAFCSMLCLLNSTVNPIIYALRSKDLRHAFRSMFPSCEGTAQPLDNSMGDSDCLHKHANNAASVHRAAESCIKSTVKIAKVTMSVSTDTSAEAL

The melting point is the temperature of the solid-liquid transition. As for `CCCS(=O)(=O)Oc1ccc(-c2c(C)c(C(=O)NN3CCCCC3)nn2-c2ccc(Cl)cc2Cl)cc1` [Example 1, Propane-1-sulfonic acid 4-[2-(2,4-dichlorophenyl)-4-methyl-5-(piperidin-1-ylcarbamoyl)2H-pyrazol-3-yl]-phenyl Ester], the melting point is 190 °C.
One may read the IC50 as the point on the concentration scale where inhibition reaches its midpoint. On to `CCCS(=O)(=O)Oc1ccc(-c2c(C)c(C(=O)NC3(C(=O)OC)CCCC3)nn2-c2ccc(Cl)cc2Cl)cc1` [Example 10, Methyl 1-{[(1-(2,4-dichlorophenyl)-4-methyl-5-{4[(propylsulfonyl)oxy]phenyl}-1H-pyrazol-3-yl)carbonyl]amino}cyclopentanecarboxylate], for which the IC50 on CB1 receptor worked out at 6 nM.
For `CCCOC(=O)Oc1ccc(-c2c(C)c(C(=O)NN3CCCCC3)nn2-c2ccc(Cl)cc2Cl)cc1` [Example 11, Carbonic acid 4-[2-(2,4-dichlorophenyl)-4-methyl-5-(piperidine-1-ylcarbamoyl)-2H-pyrazol-3-yl]-phenyl Ester Propyl Ester], on CB1 receptor, the half-inhibitory concentration (IC50) came to 6.4 nM.

The record behind these values is patent publication US20090149463A1, “Therapeutic agents” (priority 2004, published 2009).
